# Results: article PMC9749936, “Synthesis and structure–activity relationship studies of N-terminal analogues of the lipopeptide antibiotics brevicidine and laterocidine” (RSC Medicinal Chemistry, 2022)
# Bridge positions count the residues as written; N and C are the ends. Square brackets hold non-standard residues; d marks the D form. Peptide text beside a SMILES is read from it. * marks the point of attachment. dOrn = NCCC[C@@H](N)C(=O)O; Octanoyl = CCCCCCCC(=O)*; Orn = NCCC[C@H](N)C(=O)O; Hexanoyl = CCCCCC(=O)*; Butyryl = CCCC(=O)*
# How the values were obtained:
# E. coli ATCC 25922 MCR-1 = assay type: cell-based, Escherichia coli; details: colistin-resistant strain carrying mcr-1; CLSI broth microdilution in MHB, 18 h at 37 °C, visual inspection; three technical replicates
# Method: (§1) The minimum inhibitory concentrations (MICs) of brevicidine and laterocidine analogues were determined against a panel of clinically relevant ESKAPE pathogens; Escherichia coli (E. coli), Klebsiella pneumoniae (K. pneumoniae), Acinetobacter baumannii (A. baumannii), Pseudomonas aeruginosa (P. aeuroginosa) and Staphylococcus aureus (S. aureus), which cause the majority of nosocomial infections in the United States.[16] […] In this resistance mechanism, the polymyxin target (lipid A) is modified, reducing binding affinity. For this reason, a strain of colistin-resistant E. coli carrying the mcr-1 gene was also included in the panel. […]
# Colisitin sulfate was purchased from Activate Scientific. Kanamycin monosulfate was purchased from MP Biomedicals. E. coli ATCC 25922, S. aureus USA300 (ATCC BAA1717), K. pneumoniae ATCC 13883 and A. baumannii ATCC 17961 belong to the American Type Culture Collection (ATCC). P. aeruginosa PAO1 was kindly provided by L.H.C. Quarles Van Ufford, Utrecht University, Utrecht, The Netherlands. E. coli ATCC 25922 MCR-1 was transfected in house using the pGDP2-MCR1 plasmid kindly provided by Yong-Xin Li, The University of Hong Kong, Hong Kong, China. Sheep blood agar plates (Ref. PB5039A) were purchased from Thermo Scientific. Tryptic soy broth (Ref. 02-200-500) was purchased from Scharlab. Mueller-Hinton broth (Ref. X927.1) was purchased from Carl Roth. Polypropylene 96-wells plates (Ref. 3879) were purchased from Corning. […]
# (10.0 mL). 2-Chlorotrityl (CT) chloride resin (2.00 g, 0.81 mmol g-1) and DIPEA (420 µL, 2.40 mmol) were added. […]
# A gradient […]
# method for C14 - C16 laterocidine was employed, starting at 100% solvent A for 2 min, ramping up to 70 % solvent B over 45 min, ramping up to 100% solvent B over 1 min, remaining there for 6 min before ramping down to 100% solvent A and remaining there for 5 min. High resolution mass spectrometry (HRMS) spectra of brevicidine peptides were recorded by Analytical Services and Environmental Projects (ASEP) at Queen’s University Belfast on a Waters LCT Premier ToF mass spectrometer using the electrospray ionisation (ESI) technique. HRMS spectra of laterocidine peptides were performed on a Thermo Scientific Dionex UltiMate 3000 HPLC system with a Phenomenex Kinetex C18 (2.6 µm, 2.1 x 150 mm) column at 35 °C and equipped with a diode array detector. The following solvent system, at a flow rate of 0.3 mL/min, was used: solvent A = 0.1% formic acid in water, solvent B = 0.1% formic acid in acetonitrile. A gradient method was employed, starting at 95 % solvent A and 5 % solvent B for 1 min, ramping up to 95 % solvent B over 9 min, ramping up to 98 % solvent B over 1 min, remaining there for 1 min before ramping back down to 95 % solvent A over 2 min and remaining there for 1 min.
# The system was connected to a Bruker micrOTOF-Q II mass spectrometer (ESI ionization) calibrated internally with sodium […]
# (§2) IV. Antimicrobial testing
# (§3) All minimum inhibitory concentrations (MICs) were determined according to Clinical and Standards Laboratory Institute (CLSI) guidelines. Blood agar plates were inoculated with glycerol stocks of E. coli ATCC 25922, K. pneumoniae ATCC 13883, A. baumannii ATCC 17961, P. aeruginosa PAO1 and S. aureus USA300. The inoculated agar plates were then incubated for 16 h at 37 °C . Individually grown colonies were subsequently used to inoculate 5 mL aliquots of TSB that were then incubated at 37 °C with shaking at 220 rpm. E. coli 25922 MCR-1 glycerol stock was used to inoculate 5 mL of TSB supplemented with kanamycin that was then incubated for 16 h at 37 °C with shaking at 220 rpm. The next day the culture was diluted 100 fold in TSB supplemented with kanamycin and incubated at 37 °C with shaking at 220 rpm. In parallel, the lipopeptide antibiotics DMSO stocks to be assessed were serially diluted with MHB in polypropylene 96-well plates (50 µL in each well). Colistin sulfate stocks were dissolved in water before being diluted with MHB. […]
# P. aeruginosa PAO1 = assay type: cell-based, Pseudomonas aeruginosa; details: PAO1, 18 h
# Method: as §1, §2
# as §3, with “MHB. Aliquots of the inoculated TSB were incubated until an OD600 of around 0.5 was reached. The bacterial suspensions were then diluted with MHB (2 x 10^5 CFU mL-1) and added to the microplates containing the test compounds (50 µL to each well). The well-plates were sealed with an adhesive membrane and after 18 h of incubation at 37 °C with shaking at 600 rpm, the wells were visually inspected for bacterial” for “MHB.”
# (§4) growth. MIC values reported are based on three technical replicates and defined as the lowest concentration of the compound that prevented visible growth of bacteria. […]
# (§5) The values obtained from a read-out at 415 nm were corrected for background (negative control) and transformed to a percentage relative to the positive control.
# (§6) VI. HPLC and HRMS analysis of peptides
# (§7) Peptide Name Chemical Calcd Mass found Calcd Overall […]
# S. aureus USA300 = assay type: cell-based, Staphylococcus aureus; details: USA300, 18 h
# Method: as §1, §2
# as §3, with “MHB. Aliquots of the inoculated TSB were incubated until an OD600 of around 0.5 was reached. The bacterial suspensions were then diluted with MHB (2 x 10^5 CFU mL-1) and added to the microplates containing the test compounds (50 µL to each well). The well-plates were sealed with an adhesive membrane and after 18 h of incubation at 37 °C with shaking at 600 rpm, the wells were visually inspected for bacterial” for “MHB.”
# as §4, §5, §6, §7
# A. baumannii ATCC 17961 = assay type: cell-based, Acinetobacter baumannii; details: ATCC 17961, 18 h
# Method: as §1, §2
# as §3, with “MHB. Aliquots of the inoculated TSB were incubated until an OD600 of around 0.5 was reached. The bacterial suspensions were then diluted with MHB (2 x 10^5 CFU mL-1) and added to the microplates containing the test compounds (50 µL to each well). The well-plates were sealed with an adhesive membrane and after 18 h of incubation at 37 °C with shaking at 600 rpm, the wells were visually inspected for bacterial” for “MHB.”
# as §4, §5, §6, §7
# E. coli ATCC 25922 = assay type: cell-based, Escherichia coli; details: ATCC 25922, 18 h
# Method: as §1, §2
# as §3, with “MHB. Aliquots of the inoculated TSB were incubated until an OD600 of around 0.5 was reached. The bacterial suspensions were then diluted with MHB (2 x 10^5 CFU mL-1) and added to the microplates containing the test compounds (50 µL to each well). The well-plates were sealed with an adhesive membrane and after 18 h of incubation at 37 °C with shaking at 600 rpm, the wells were visually inspected for bacterial” for “MHB.”
# as §4, §5, §6, §7
# Sheep red blood cells = assay type: cell-based; details: red cells of sheep, 1 h, 64 μg mL^−1
# Method: Having ascertained the antimicrobial activity of all synthetic peptides against a panel of ESKAPE pathogens, we next assessed their mammalian toxicity with hemolytic assays using sheep red blood cells. The % hemolysis for all peptides at 64 μg mL^−1 was determined, with the hemolysis induced by the surfactant 0.1% Triton X-100 taken as 100%. […] Hemolysis was <1% for all analogues with a C8 chain or shorter, including the strongest antibacterial peptide C8-Lat (22). Hemolytic activity increased up to C14 (>50% for C14-Lat) and then decreased at longer chain lengths, perhaps due to decreased solubility of peptides or aggregation. […]
# Phosphate-Buffered Saline (PBS) containing 0.002% Tween20 (buffer) five times. Then, the red blood cells were normalized to obtain a positive control read-out between 2.5 and 3.0 at 415 nm to stay within the linear range with the maximum sensitivity. A serial dilution of the compounds (128 – 1 µg/mL, 75 µL) was prepared in a 96-well polypropylene plate. The outer border of the plate was filled with 75 µL buffer. Each plate contained a positive control (0.1% Triton-X final concentration, 75 µL) and a negative control (buffer, 75 µL) in triplicate. The normalized blood cells (75 µL) were added and the plates were incubated at 37 °C for 1 h while shaking at 500 rpm. A flat-bottom polystyrene plate with 100 µL buffer in each well was prepared. After incubation, the plates were centrifuged (800 g for 5 min at room temperature) and 25 µL of the supernatant was transferred to their respective wells in the flat-bottom plate. The values obtained from a read-out at 415 nm were corrected for background (negative control) and transformed to a percentage relative to the positive control. […]
# K. pneumoniae ATCC 13883 = assay type: cell-based, Klebsiella pneumoniae; details: ATCC 13883, 18 h
# Method: as §1, §2
# as §3, with “MHB. Aliquots of the inoculated TSB were incubated until an OD600 of around 0.5 was reached. The bacterial suspensions were then diluted with MHB (2 x 10^5 CFU mL-1) and added to the microplates containing the test compounds (50 µL to each well). The well-plates were sealed with an adhesive membrane and after 18 h of incubation at 37 °C with shaking at 600 rpm, the wells were visually inspected for bacterial” for “MHB.”
# as §4, §5, §6, §7
Compound,Antimicrobial activity (MIC) E. coli ATCC 25922 MCR-1 (E. coli ATCC 25922 MCR-1),Antimicrobial activity (MIC) P. aeruginosa PAO1 (P. aeruginosa PAO1),Antimicrobial activity (MIC) S. aureus USA300 (S. aureus USA300),Antimicrobial activity (MIC) A. baumannii ATCC 17961 (A. baumannii ATCC 17961),Antimicrobial activity (MIC) E. coli ATCC 25922 (E. coli ATCC 25922),"% Hemolytic activity, sheep red blood cells (Sheep red blood cells)",Antimicrobial activity (MIC) K. pneumoniae ATCC 13883 (K. pneumoniae ATCC 13883)
CC[C@H](C)[C@@H]1NC(=O)[C@@H](NC(=O)[C@H](Cc2c[nH]c3ccccc23)NC(=O)[C@@H](CCCN)NC(=O)CNC(=O)[C@H](CCCN)NC(=O)[C@@H](CCCN)NC(=O)[C@@H](Cc2c[nH]c3ccccc23)NC(=O)[C@@H](Cc2ccc(O)cc2)NC(=O)[C@H](N)CC(N)=O)[C@@H](C)OC(=O)[C@H](CO)NC(=O)CNC1=O [Compound 9],>32 µg/mL,16 µg/mL,>32 µg/mL,>32 µg/mL,>32 µg/mL,0.2%,>32 µg/mL
CC[C@H](C)[C@@H]1NC(=O)[C@@H](NC(=O)[C@H](Cc2c[nH]c3ccccc23)NC(=O)[C@@H](CCCN)NC(=O)CNC(=O)[C@H](CCCN)NC(=O)[C@@H](CCCN)NC(=O)[C@@H](Cc2c[nH]c3ccccc23)NC(=O)[C@@H](Cc2ccc(O)cc2)NC(=O)[C@@H](CC(N)=O)NC(C)=O)[C@@H](C)OC(=O)[C@H](CO)NC(=O)CNC1=O [Compound 10] (Ac-[dN][dY][dW][dOrn][Orn]G[dOrn]WTIGS; ester 9-C),>32 µg/mL,8 µg/mL,>32 µg/mL,>32 µg/mL,>32 µg/mL,0.2%,>32 µg/mL
CCCC(=O)N[C@H](CC(N)=O)C(=O)N[C@H](Cc1ccc(O)cc1)C(=O)N[C@H](Cc1c[nH]c2ccccc12)C(=O)N[C@H](CCCN)C(=O)N[C@@H](CCCN)C(=O)NCC(=O)N[C@H](CCCN)C(=O)N[C@@H](Cc1c[nH]c2ccccc12)C(=O)N[C@@H]1C(=O)N[C@@H]([C@@H](C)CC)C(=O)NCC(=O)N[C@@H](CO)C(=O)O[C@@H]1C [Compound 11] (Butyryl-[dN][dY][dW][dOrn][Orn]G[dOrn]WTIGS; ester 9-C),32 µg/mL,16 µg/mL,>32 µg/mL,32 µg/mL,32 µg/mL,0.1%,8 µg/mL
CCCCCC(=O)N[C@H](CC(N)=O)C(=O)N[C@H](Cc1ccc(O)cc1)C(=O)N[C@H](Cc1c[nH]c2ccccc12)C(=O)N[C@H](CCCN)C(=O)N[C@@H](CCCN)C(=O)NCC(=O)N[C@H](CCCN)C(=O)N[C@@H](Cc1c[nH]c2ccccc12)C(=O)N[C@@H]1C(=O)N[C@@H]([C@@H](C)CC)C(=O)NCC(=O)N[C@@H](CO)C(=O)O[C@@H]1C [Compound 12] (Hexanoyl-[dN][dY][dW][dOrn][Orn]G[dOrn]WTIGS; ester 9-C),8 µg/mL,>32 µg/mL,>32 µg/mL,16 µg/mL,8 µg/mL,0.3%,4 µg/mL
CCCCCCCC(=O)N[C@H](CC(N)=O)C(=O)N[C@H](Cc1ccc(O)cc1)C(=O)N[C@H](Cc1c[nH]c2ccccc12)C(=O)N[C@H](CCCN)C(=O)N[C@@H](CCCN)C(=O)NCC(=O)N[C@H](CCCN)C(=O)N[C@@H](Cc1c[nH]c2ccccc12)C(=O)N[C@@H]1C(=O)N[C@@H]([C@@H](C)CC)C(=O)NCC(=O)N[C@@H](CO)C(=O)O[C@@H]1C [Compound 13] (Octanoyl-[dN][dY][dW][dOrn][Orn]G[dOrn]WTIGS; ester 9-C),16 µg/mL,8 µg/mL,>32 µg/mL,16 µg/mL,16 µg/mL,0.4%,16 µg/mL
